In US8183239B2, “Substituted piperazines and piperidines as modulators of the neuropeptide Y2 receptor” (Janssen Pharmaceutica NV, priority 2005, dated 2012) one finds IC50 data, which are given here for 27 compounds.

For one test, the target named is T1, Y2 receptors (Homo sapiens, UniProt P49146).
T1 construct: endogenous in cells; host or cells: KAN-Ts cells (membranes)
T1 sequence (P49146 1-381): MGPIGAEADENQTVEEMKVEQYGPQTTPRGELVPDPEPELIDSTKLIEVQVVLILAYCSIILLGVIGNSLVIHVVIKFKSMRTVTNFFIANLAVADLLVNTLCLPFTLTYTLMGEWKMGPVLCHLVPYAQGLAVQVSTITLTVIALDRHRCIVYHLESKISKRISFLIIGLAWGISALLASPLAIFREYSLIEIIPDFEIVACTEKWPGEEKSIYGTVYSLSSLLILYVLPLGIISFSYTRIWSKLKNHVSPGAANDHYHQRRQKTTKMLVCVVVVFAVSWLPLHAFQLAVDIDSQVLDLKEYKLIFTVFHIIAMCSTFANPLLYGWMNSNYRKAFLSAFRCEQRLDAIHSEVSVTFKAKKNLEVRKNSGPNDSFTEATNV
Nature of the test: Radioligand binding assay ([125I]PYY, KAN-Ts cell membranes). Conditions: Table 1, [125I]PYY 80 pM, average of results, read-out: IC50. On the procedure:
Radioligand Binding Assay
KAN-Ts endogenously expressing Y2 receptors were used for the radioligand binding assay. Cells were grown to confluence on 150 cm^2 tissue culture plates, washed with phosphate-buffered saline (PBS), and scraped into 50 mL tubes. After centrifugation, the supernatant was aspirated, and the pellets frozen and stored at −80° C. Thawed pellets were homogenized with a polytron tissue grinder for 15 sec in 20 mM Tris-HCl, 5 mM EDTA. The homogenate was centrifuged at 800×g for 5 min and the collected supernatant was recentrifuged at 25000×g for 25 min. The resulting pellet was resuspended in binding buffer (20 mM HEPES, 120 mM NaCl, 0.22 mM KH2PO4, 1.3 mM CaCl2, 0.8 mM MgSO4). Membranes were incubated with [^125I]PYY (80 pM) in the presence or absence of test compound for 1 h at rt. The reaction was stopped by filtration through GF/C filter plates pre-soaked in 0.3% polyethylenimine and subsequently washed with Tris 50 mM, 5 mM EDTA buffer. Plates were dried for 1 h in a 55° C. oven, scintillation fluid was added and the radioactivity was counted in a Packard TopCount. Specific binding to the NPY receptor subtypes was determined by radioactivity that was bound in the presence of […]. Each binding experiment was repeated three to eight times, each in duplicate. IC50 values (i.e. concentration of unlabelled peptide or antagonist required to compete for 50% of specific binding to the radioligand) were calculated using the GraphPad Prism software (GraphPad Software Inc., San Diego Calif.) with a fit to a sigmoidal dose response curve. Data for compounds tested are presented in Tables 1 and 2 as an average of results obtained.
For the compound `CCC(CC)C(=O)Nc1ccc(N2CCN(C(C(=O)N3CCCC3)c3ccccc3)CC2)c(F)c1` (stereo not drawn) [Example 1, 2-Ethyl-N-{3-fluoro-4-[4-(2-oxo-1-phenyl-2-pyrrolidin-1-yl-ethyl)-piperazin-1-yl]-phenyl}-butyramide], the IC50 was 58 nM.

Consider `CCC(CC)C(=O)Nc1ccc(N2CCN(Cc3ccccc3C(=O)OC)CC2)c(F)c1` [Example 2, 2-{4-[4-(2-Ethyl-butyrylamino)-2-fluoro-phenyl]-piperazin-1-ylmethyl}-benzoic acid methyl ester], for which the IC50 is 2350 nM.

Consider `CCC(CC)C(=O)Nc1ccc(N2CCN(Cc3cccc(C(=O)N4CCOCC4)c3)CC2)c(F)c1` [Example 3, 2-Ethyl-N-(3-fluoro-4-{4-[3-(morpholine-4-carbonyl)-benzyl]-piperazin-1-yl}-phenyl)-butyramide], for which the IC50 turned out to be 560 nM.

Turning to `CCC(CC)C(=O)Nc1ccc(N2CCN(Cc3ccccc3C(=O)N(CC)CC)CC2)c(F)c1` [Example 4, N,N-Diethyl-2-{4-[4-(2-ethyl-butyrylamino)-2-fluoro-phenyl]-piperazin-1-ylmethyl}-benzamide], the IC50 stood at 370 nM.

Take `CCC(CC)C(=O)Nc1ccc(N2CCN(Cc3ccccc3C(=O)N3CCOCC3)CC2)c(F)c1` [Example 5, 2-Ethyl-N-(3-fluoro-4-{4-[2-(morpholine-4-carbonyl)-benzyl]-piperazin-1-yl}-phenyl)-butyramide]: the IC50 is 1900 nM.

As for `CCC(CC)C(=O)Nc1ccc(N2CCN(C(C(=O)N(CC)CC)c3ccccc3)CC2)c(F)c1` (stereo not drawn) [Example 6, N-{4-[4-(Diethylcarbamoyl-phenyl-methyl)-piperazin-1-yl]-3-fluoro-phenyl}-2-ethyl-butyramide], the IC50 worked out at 71 nM.

On to `CCNC(=O)C(c1ccccc1)N1CCN(c2ccc(NC(=O)C(CC)CC)cc2F)CC1` (stereo not drawn) [Example 7, 2-Ethyl-N-{4-[4-(ethylcarbamoyl-phenyl-methyl)-piperazin-1-yl]-3-fluoro-phenyl}-butyramide], for which the IC50 worked out at 377 nM.

Take `CCN(CC)C(=O)C(c1ccccc1)C1CCN(c2ccc(NC(=O)Nc3c(C)noc3C)cc2F)CC1` (stereo not drawn) [Example 8, 2-(1-{4-[3-(3,5-Dimethyl-isoxazol-4-yl)-ureido]-2-fluoro-phenyl}-piperidin-4-yl)-N,N-diethyl-2-phenyl-acetamide]: the IC50 turned out to be 10 nM.

`CCN(CC)C(=O)C(c1ccccc1)C1CCN(c2ccc(NC(=O)Cc3c(C)noc3C)cc2F)CC1` (stereo not drawn) [Example 9, 2-(1-{4-[2-(3,5-Dimethyl-isoxazol-4-yl)-acetylamino]-2-fluoro-phenyl}-piperidin-4-yl)-N,N-diethyl-2-phenyl-acetamide]: the IC50 came out at 14 nM.

For `CCC(CC)C(=O)Nc1ccc(N2CCC(C(C(=O)N(CC)CC)c3ccccc3)CC2)c(F)c1` (stereo not drawn) [Example 11, N-{4-[4-(Diethylcarbamoyl-phenyl-methyl)-piperidin-1-yl]-3-fluoro-phenyl}-2-ethyl-butyramide], the half-maximal inhibitory concentration (IC50) was 12 nM.

With `CCN(CC)C(=O)C(c1ccccc1)C1CCN(c2ccc(NC(=O)c3c(C)noc3C)cc2F)CC1` (stereo not drawn) [Example 12, 3,5-Dimethyl-isoxazole-4-carboxylic acid {4-[4-(diethylcarbamoyl-phenyl-methyl)-piperidin-1-yl]-3-fluoro-phenyl}-amide], the IC50 is 26 nM.

Turning to `CCNC(=O)C(c1ccccc1)C1CCN(c2ccc(NC(=O)Cc3c(C)noc3C)cc2F)CC1` (stereo not drawn) [Example 13, 2-(1-{4-[2-(3,5-Dimethyl-isoxazol-4-yl)-acetylamino]-2-fluoro-phenyl}-piperidin-4-yl)-N-ethyl-2-phenyl-acetamide], the IC50 was 58 nM.

For the compound `CCNC(=O)C(c1ccccc1)C1CCN(c2ccc(NC(=O)C(CC)CC)cc2F)CC1` (stereo not drawn) [Example 14, 2-Ethyl-N-{4-[4-(ethylcarbamoyl-phenyl-methyl)-piperidin-1-yl]-3-fluoro-phenyl}-butyramide], the IC50 came out at 112 nM.

As for `CCNC(=O)C(c1ccccc1)C1CCN(c2ccc(NC(=O)Nc3c(C)cccc3C)cc2F)CC1` (stereo not drawn) [Example 15, 2-(1-{4-[3-(2,6-Dimethyl-phenyl)-ureido]-2-fluoro-phenyl}-piperidin-4-yl)-N-ethyl-2-phenyl-acetamide], the IC50 was 162 nM.

Take `CCCC(CCC)C(=O)Nc1ccc(N2CCC(C(C(=O)NCC)c3ccccc3)CC2)c(F)c1` (stereo not drawn) [Example 16, 2-Propyl-pentanoic acid {4-[4-(ethylcarbamoyl-phenyl-methyl)-piperidin-1-yl]-3-fluoro-phenyl}-amide]: the IC50 worked out at 280 nM.

Turning to `CCNC(=O)C(c1ccccc1)C1CCN(c2ccc(NC(=O)NCc3ccc(F)cc3)cc2F)CC1` (stereo not drawn) [Example 17, N-Ethyl-2-(1-{2-fluoro-4-[3-(4-fluoro-benzyl)-ureido]-phenyl}-piperidin-4-yl)-2-phenyl-acetamide], the IC50 is 1000 nM.

Turning to `CCNC(=O)C(c1ccccc1)C1CCN(c2ccc(NC(=O)C(C)C)cc2)CC1` (stereo not drawn) [Example 18, N-{4-[4-(Ethylcarbamoyl-phenyl-methyl)-piperidin-1-yl]-phenyl}-isobutyramide], the IC50 is 4000 nM.

Consider `CCNC(=O)C(c1ccccc1)C1CCN(c2ccc(NC(=O)CC3CCCCC3)cc2F)CC1` (stereo not drawn) [Example 19, 2-{1-[4-(2-Cyclohexyl-acetylamino)-2-fluoro-phenyl]-piperidin-4-yl}-N-ethyl-2-phenyl-acetamide], for which the IC50 worked out at 10000 nM.

Regarding `CCN(CC)C(=O)C(c1ccccc1)N1CCN(c2ccc(NC(=O)Nc3c(C)noc3C)cc2F)CC1` (stereo not drawn) [Example 20, 2-(4-{4-[3-(3,5-Dimethyl-isoxazol-4-yl)-ureido]-2-fluoro-phenyl}-piperazin-1-yl)-N,N-diethyl-2-phenyl-acetamide], the IC50 was 16 nM.

Take `CCN(CC)C(=O)C(c1ccccc1)N1CCN(c2ccc(NC(=O)Cc3c(C)noc3C)cc2F)CC1` (stereo not drawn) [Example 21, 2-(4-{4-[2-(3,5-Dimethyl-isoxazol-4-yl)-acetylamino]-2-fluoro-phenyl}-piperazin-1-yl)-N,N-diethyl-2-phenyl-acetamide]: the IC50 turned out to be 20 nM.

As to `CCN(CC)C(=O)C(c1ccccc1)N1CCN(c2ccc(NC(=O)c3c(C)noc3C)cc2F)CC1` (stereo not drawn) [Example 22, 3,5-Dimethyl-isoxazole-4-carboxylic acid {4-[4-(diethylcarbamoyl-phenyl-methyl)-piperazin-1-yl]-3-fluoro-phenyl}-amide], the IC50 came to 26 nM.

As to `CCNC(=O)C(c1ccccc1)N1CCN(c2ccc(NC(=O)Nc3c(C)noc3C)cc2F)CC1` (stereo not drawn) [Example 23, 2-(4-{4-[3-(3,5-Dimethyl-isoxazol-4-yl)-ureido]-2-fluoro-phenyl}-piperazin-1-yl)-N-ethyl-2-phenyl-acetamide], the IC50 amounted to 42 nM.

On to `CCNC(=O)C(c1ccccc1)N1CCN(c2ccc(NC(=O)Cc3c(C)noc3C)cc2F)CC1` (stereo not drawn) [Example 24, 2-(4-{4-[2-(3,5-Dimethyl-isoxazol-4-yl)-acetylamino]-2-fluoro-phenyl}-piperazin-1-yl)-N-ethyl-2-phenyl-acetamide], for which the IC50 worked out at 176 nM.

With `CCNC(=O)C(c1ccccc1)N1CCN(c2ccc(NC(=O)Nc3cc(C)ccc3C)cc2F)CC1` (stereo not drawn) [Example 25, 2-(4-{4-[3-(2,5-Dimethyl-phenyl)-ureido]-2-fluoro-phenyl}-piperazin-1-yl)-N-ethyl-2-phenyl-acetamide], the IC50 came to 260 nM.

The same test, now with this note: Table 2, [125I]PYY 80 pM, average of results, read-out: IC50.
Turning to `CCC(CC)C(=O)Nc1ccc(N2CCN(C(C(=O)OC)c3ccccc3)C(C(=O)OC)C2)c(F)c1` (single isomer, unassigned; diastereomer 1) [Example 269, 4-[4-(2-Ethyl-butyrylamino)-2-fluoro-phenyl]-1-(methoxycarbonyl-phenyl-methyl)-piperazine-2-carboxylic acid methyl ester (diastereomer 1)], the IC50 came out at 2300 nM.

For the compound `CCC(CC)C(=O)Nc1ccc(N2CCN(C(C(=O)OC)c3ccccc3)C(C(=O)OC)C2)c(F)c1` (single isomer, unassigned; diastereomer 2) [Example 265, 4-[4-(2-Ethyl-butyrylamino)-2-fluoro-phenyl]-1-(methoxycarbonyl-phenyl-methyl)-piperazine-2-carboxylic acid methyl ester (diastereomer 2)], the IC50 was found to be 600 nM.

Regarding `CC[C@H](C)C(=O)Nc1ccc(N2CCC(C(C(=O)N(CC)CC)c3ccccc3)CC2)c(C#N)c1` (stereo in doubt) [Example 218, N-{3-Cyano-4-[4-(diethylcarbamoyl-phenyl-methyl)-piperidin-1-yl]-phenyl}-2-methyl-butyramide], the IC50 is 30 nM.
